From the supplement of paper PMC10331698
± gives the standard deviation of the averaged measurements.

Columns and labels:
Assay in all cases: level (log10 ratio to DMSO vehicle control); higher = higher biomarker level / cell amount than vehicle control
Settings in all cases: in DMSO
[1] = compound: CCCCCCCCC(F)(F)C(F)(F)C(F)(F)C(F)(F)C(F)(F)C(F)(F)F [1-(Perfluorohexyl)octane]
Procedure: (§1)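 BioMAP Diversity Plus panel of 12 human primary cell co-culture systems (3C, 4H, LPS, SAg, BT, BF4T, BE3C, CASM3C, HDF3CGF, KF3CT, MyoF, Mphg). Compounds were added 1 h before stimulation and left for 24 h (MyoF 48 h; BT 72 h for soluble read-outs or 6 d for IgG). Biomarkers were read by ELISA, cytotoxicity by SRB, PBMC viability and proliferation by Alamar Blue. Each well value was divided by the mean of 8 DMSO control wells on the same plate and log10 transformed; duplicate blinded samples were tested at 4 concentrations.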

[2] = compound: Cn1cnc([N+](=O)[O-])c1Sc1ncnc2[nH]cnc12 [Azathioprine]
Procedure: as §1

[3] = compound: NC(=O)C(F)(F)C(F)(F)C(F)(F)C(F)(F)C(F)(F)C(F)(F)C(F)(F)F [Perfluorooctanamide]
Procedure: as §1

[4] = compound: O=C(O)C(F)(F)C(F)(F)C(F)(F)C(F)(F)C(F)(F)C(F)(F)C(F)(F)C(F)(F)Cl [9-Chloro-perfluorononanoic acid]
Procedure: as §1

[5] = compound: O=C(O)C(F)(F)OC(F)(F)C(F)(F)OC(F)(F)C(F)(F)C(F)(F)C(F)(F)F [Perfluoro-3,6-dioxadecanoic acid]
Procedure: as §1

[6] = compound: O=S(=O)(O)C(F)(F)C(F)(F)C(F)(F)C(F)(F)F [Perfluorobutanesulfonic acid]
Procedure: as §1

[7] = compound: OCC(F)(F)C(F)(F)C(F)(F)F [1H,1H-Heptafluorobutanol]
Procedure: as §1

Test System	level (log10) ([1]; 6700 nM)	level (log10) ([1]; 20000 nM)	level (log10) ([2]; 1400 nM)	level (log10) ([2]; 4200 nM)	level (log10) ([2]; 13000 nM)	level (log10) ([2]; 38000 nM)	level (log10) ([3]; 6700 nM)	level (log10) ([3]; 20000 nM)	level (log10) ([3]; 60000 nM)	level (log10) ([4]; 6700 nM)	level (log10) ([4]; 20000 nM)	level (log10) ([5]; 6700 nM)	level (log10) ([5]; 20000 nM)	level (log10) ([5]; 60000 nM)	level (log10) ([6]; 6700 nM)	level (log10) ([6]; 20000 nM)	level (log10) ([6]; 60000 nM)	level (log10) ([7]; 6700 nM)	level (log10) ([7]; 20000 nM)	level (log10) ([7]; 60000 nM)
BE3C:PAI-I	-0.025 ± 0.0057	-0.024	-0.0235 ± 0.044	0.015 ± 0.042	0.003 ± 0.05	-0.071 ± 0.03	-0.01 ± 0.016	0.016 ± 0.0085	0.022 ± 0.0057	0.0005 ± 0.0035	-0.215 ± 0.017	0.0345 ± 0.021	0.009 ± 0.031	-0.11 ± 0.005	-0.0015 ± 0.0035	-0.006 ± 0.013	0.008 ± 0.013	-0.0285 ± 0.0078	-0.0185 ± 0.03	-0.0115 ± 0.0035
CASM3C:CD106/VCAM-1	-0.023 ± 0.0014	-0.0115 ± 0.021	-0.0125 ± 0.022	-0.0155 ± 0.0092	-0.0485 ± 0.018	-0.136 ± 0.023	-0.0245 ± 0.005	-0.014 ± 0.028	-0.004 ± 0.027	-0.029 ± 0.0014	-0.027 ± 0.016	0.001 ± 0.011	-0.0145 ± 0.0092	0.0065 ± 0.037	-0.0465 ± 0.021	-0.0255 ± 0.025	-0.033 ± 0.0057	0.0035 ± 0.033	0.0065 ± 0.012	-0.0015 ± 0.0092
HDF3CGF:Collagen III	-0.029 ± 0.042	-0.0315 ± 0.042	-0.0145 ± 0.074	-0.114 ± 0.088	-0.101 ± 0.0064	-0.22 ± 0.096	-0.018 ± 0.014	-0.02 ± 0.0014	-0.0085 ± 0.056	-0.0835 ± 0.046	-0.235 ± 0.061	-0.024 ± 0.044	-0.0885 ± 0.035	-0.286 ± 0.045	-0.013 ± 0.048	0.035 ± 0.016	0.047 ± 0.016	-0.0055 ± 0.076	-0.0285 ± 0.052	-0.0155 ± 0.044
MyoF:CD106/VCAM-1	-0.0085 ± 0.005	-0.027 ± 0.033	-0.01 ± 0.0099	0.008	-0.0165 ± 0.005	-0.022 ± 0.014	-0.0115 ± 0.015	0.014 ± 0.0014	-0.0185 ± 0.011	-0.008 ± 0.025	-0.101 ± 0.023	-0.0055 ± 0.00071	-0.0285 ± 0.026	-0.045 ± 0.021	-0.004 ± 0.0028	0.0085 ± 0.0021	0.0155 ± 0.016	0.0025 ± 0.022	0.0025 ± 0.011	0.008 ± 0.0014
MyoF:Decorin	0.005 ± 0.011	0.0265 ± 0.032	-0.007 ± 0.024	-0.009 ± 0.023	-0.0165 ± 0.015	-0.013 ± 0.018	-0.0145 ± 0.05	0.027 ± 0.078	0.0305 ± 0.04	0.012 ± 0.0014	-0.0045 ± 0.05	0.0005 ± 0.0021	0.023 ± 0.014	-0.021 ± 0.027	0.0315 ± 0.012	0.03 ± 0.016	0.083 ± 0.013	0.0055 ± 0.0064	0.013 ± 0.016	0.02 ± 0.03
3C:CD54/ICAM-1	0.0025 ± 0.013	0.0165 ± 0.005	0.0035 ± 0.005	-0.014 ± 0.031	-0.0085 ± 0.0092	-0.016 ± 0.013	-0.012 ± 0.011	-0.003 ± 0.013	0.0335 ± 0.012	-0.0075 ± 0.0092	-0.0085 ± 0.019	-0.003 ± 0.028	-0.0025 ± 0.018	0.019 ± 0.011	-0.008 ± 0.0014	0.0035 ± 0.0021	0.0015 ± 0.0021	0.0095 ± 0.0064	0.003 ± 0.0085	0.0075 ± 0.0064
KF3CT:CCL2/MCP-1	0.0005 ± 0.023	0.036 ± 0.033	-0.0045 ± 0.0092	-0.008 ± 0.0099	-0.0335 ± 0.015	-0.015 ± 0.0014	-0.011 ± 0.017	-0.034 ± 0.031	-0.091 ± 0.0028	0.004 ± 0.023	0.036 ± 0.035	-0.0115 ± 0.018	-0.014 ± 0.0071	-0.08 ± 0.0042	-0.032 ± 0.017	-0.0095 ± 0.026	0.0135 ± 0.083	0.0035 ± 0.005	0.006 ± 0.0042	0.0235 ± 0.015
MyoF:Collagen IV	0.0135 ± 0.0064	0.0505 ± 0.069	0.008 ± 0.0042	0.0065 ± 0.0092	-0.013 ± 0.013	0.02 ± 0.016	-0.0335 ± 0.026	-0.0345 ± 0.042	-0.079 ± 0.064	0.024 ± 0.0071	0.264 ± 0.031	0.0055 ± 0.013	0.0345 ± 0.019	0.235 ± 0.011	0.04 ± 0.0057	0.0055 ± 0.033	0.016 ± 0.013	-0.0305 ± 0.025	-0.037 ± 0.033	-0.029 ± 0.0071
CASM3C:CD142/Tissue Factor	-0.0265 ± 0.028	-0.0295 ± 0.005	-0.0115 ± 0.015	-0.026 ± 0.034	-0.0345 ± 0.021	-0.0295 ± 0.025	-0.0085 ± 0.046	-0.0095 ± 0.0064	-0.003 ± 0.051	-0.017 ± 0.011	0.0055 ± 0.0064	0.001	-0.008 ± 0.0042	0.0105 ± 0.052	-0.0085 ± 0.0035	-0.0115 ± 0.018	0.0135 ± 0.012	0.0005 ± 0.0078	-0.0225 ± 0.013	-0.015 ± 0.0057
CASM3C:CD141/Thrombomodulin	-0.0145 ± 0.00071	-0.0165 ± 0.03	-0.004 ± 0.011	-0.057 ± 0.035	-0.043 ± 0.025	-0.0405 ± 0.1	-0.0225 ± 0.021	0.0155 ± 0.0021	0.015 ± 0.0071	-0.0175 ± 0.022	-0.0225 ± 0.025	-0.022	-0.0225 ± 0.00071	0.0315 ± 0.046	0.01 ± 0.028	-0.0095 ± 0.016	0.0075 ± 0.016	-0.01 ± 0.013	-0.0065 ± 0.0021	-0.0145 ± 0.005
lMphg:SRB	0.002 ± 0.0042	0 ± 0.0085	-0.0055 ± 0.0078	-0.0055 ± 0.005	-0.014 ± 0.0085	-0.0365 ± 0.0021	-0.0015 ± 0.016	-0.0145 ± 0.0021	-0.0075 ± 0.011	0.0105 ± 0.0092	0.013 ± 0.0042	-0.0135 ± 0.011	-0.01 ± 0.0071	-0.0705 ± 0.013	0.002 ± 0.013	-0.0155 ± 0.011	-0.0155 ± 0.0064	-0.0045 ± 0.0064	-0.002 ± 0.018	-0.005 ± 0.0014
KF3CT:CXCL8/IL-8	0.009 ± 0.0085	0.021 ± 0.0057	-0.0045 ± 0.015	-0.0225 ± 0.025	-0.0545 ± 0.019	-0.0335 ± 0.016	-0.005 ± 0.0014	-0.027 ± 0.018	-0.062 ± 0.0057	0.0015 ± 0.021	-0.0025 ± 0.0035	-0.019 ± 0.011	-0.0145 ± 0.00071	-0.103 ± 0.014	-0.031 ± 0.02	-0.002 ± 0.0042	0.004 ± 0.0071	-0.02 ± 0.0014	-0.021 ± 0.0028	-0.0025 ± 0.016
lMphg:CCL3/MIP-1alpha	-0.022 ± 0.021	0.0035 ± 0.021	-0.0005 ± 0.00071	-0.0235 ± 0.021	-0.0225 ± 0.03	-0.0975 ± 0.029	-0.0155 ± 0.0064	-0.021 ± 0.017	-0.028 ± 0.024	0.0205 ± 0.029	0.0045 ± 0.046	-0.022 ± 0.064	-0.0215 ± 0.049	-0.0545 ± 0.054	-0.0305 ± 0.016	-0.0395 ± 0.005	-0.0135 ± 0.0092	0.0015 ± 0.019	-0.003 ± 0.037	-0.0035 ± 0.0021
HDF3CGF:TIMP-2	-0.005 ± 0.067	-0.0035 ± 0.052	-0.0175 ± 0.00071	-0.023 ± 0.048	0.0315 ± 0.056	0.049 ± 0.018	-0.0085 ± 0.005	-0.035 ± 0.011	-0.0145 ± 0.022	-0.0645 ± 0.04	-0.146 ± 0.029	-0.0245 ± 0.028	-0.035 ± 0.0085	-0.0625 ± 0.0078	0.0135 ± 0.037	0.017 ± 0.023	0.031 ± 0.014	-0.0055 ± 0.025	0.018 ± 0.033	-0.029 ± 0.037
